The source made the active and inactive calls. A value given as a limit tells only on which side of the number the result lay.

Data on 8 compounds can be found in ChEMBL document CHEMBL1201862, “PubChem BioAssay data set” (2004).

For assay [1], the system named is INS1. Put plainly: beta cell apoptosis inhibitors, cytokine rescue, dose response, luminescence, retest (AID 449756).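 Also: cell death triggered by IL-1 beta plus TNF-alpha plus IFN-gamma mixture; protective hits raise ATP signal compared with cytokine alone wells.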 The assay is classed as functional, cell-based. The note with it: Rattus norvegicus.
A short description of assay [2]: Luminescent dose response cell-based high throughput screening assay for inhibitors of the Janus kinase 2 mutant JAK2V617F. [Related pubchem assays: 1446 (Primary screen.), 1521 (Confirmation assay.), 1486 (Counter screen.)]. The assay is classed as functional.
Assay [3] can be described thus: M. tuberculosis H37Rv growth inhibitors, H37Rv strain (AID 1626). The assay is classed as functional.
In assay [4] the target is Sphingosine 1-phosphate receptor 1 (Homo sapiens, UniProt P21453). The assay is classed as functional.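 Also: Tango beta-arrestin reporter U2OS cells stimulated with S1P near its EC80; inhibitor potency meaning antagonism of receptor activation by the natural agonist.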
Sphingosine 1-phosphate receptor 1, sequence (P21453 whole entry): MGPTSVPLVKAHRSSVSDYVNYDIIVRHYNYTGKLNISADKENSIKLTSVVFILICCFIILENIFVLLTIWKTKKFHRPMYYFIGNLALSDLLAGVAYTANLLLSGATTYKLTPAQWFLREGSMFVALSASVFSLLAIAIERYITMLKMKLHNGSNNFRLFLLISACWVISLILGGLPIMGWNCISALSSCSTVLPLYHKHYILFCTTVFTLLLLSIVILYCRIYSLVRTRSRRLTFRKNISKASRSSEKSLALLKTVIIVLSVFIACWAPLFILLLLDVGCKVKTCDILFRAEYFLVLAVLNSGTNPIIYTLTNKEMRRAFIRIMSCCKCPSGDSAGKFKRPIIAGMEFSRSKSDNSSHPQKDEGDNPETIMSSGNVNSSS
Assay [5] can be described thus: inhibitors of PGC1a acetylation in cells, dose response, cell-based, cherry-picked samples (AID 720514).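 Also: potency may reflect raised or lowered acetylation signal.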 The assay is classed as functional.
Assay [6] addresses Sphingosine 1-phosphate receptor 4 (Homo sapiens, UniProt O95977). The assay can be described thus: Fluorescence dose response cell-based high throughput screening assay for antagonists of the Sphingosine 1-Phosphate Receptor 4 (S1P4). [Related pubchem assays: 1524 (Confirmation in triplicates.), 1510 (Primary screen.)]. The assay is classed as functional.
Assay [7] deals with T1, Hepatocyte nuclear factor 4-alpha (Homo sapiens, UniProt P41235).
T1 sequence (P41235 whole entry): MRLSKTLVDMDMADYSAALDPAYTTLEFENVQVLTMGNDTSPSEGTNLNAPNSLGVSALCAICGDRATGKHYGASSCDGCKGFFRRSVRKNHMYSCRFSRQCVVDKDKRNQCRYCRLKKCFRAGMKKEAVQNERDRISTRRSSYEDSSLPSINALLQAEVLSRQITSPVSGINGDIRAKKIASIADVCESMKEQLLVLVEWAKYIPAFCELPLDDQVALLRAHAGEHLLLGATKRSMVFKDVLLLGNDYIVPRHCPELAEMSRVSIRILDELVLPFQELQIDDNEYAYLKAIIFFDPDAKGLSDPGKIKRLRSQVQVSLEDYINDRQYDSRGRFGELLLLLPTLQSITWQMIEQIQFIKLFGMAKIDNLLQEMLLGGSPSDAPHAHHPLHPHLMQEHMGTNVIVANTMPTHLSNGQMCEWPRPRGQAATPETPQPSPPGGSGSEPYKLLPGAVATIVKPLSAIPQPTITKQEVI
The assay is classed as functional, cell-based.

Assay [8] deals with Vero. Put plainly: cells. The assay is classed as functional. The note with it: Chlorocebus sabaeus.
Assay [9] deals with T2, Estrogen receptor (Homo sapiens, UniProt P03372).
T2 sequence (P03372 whole entry): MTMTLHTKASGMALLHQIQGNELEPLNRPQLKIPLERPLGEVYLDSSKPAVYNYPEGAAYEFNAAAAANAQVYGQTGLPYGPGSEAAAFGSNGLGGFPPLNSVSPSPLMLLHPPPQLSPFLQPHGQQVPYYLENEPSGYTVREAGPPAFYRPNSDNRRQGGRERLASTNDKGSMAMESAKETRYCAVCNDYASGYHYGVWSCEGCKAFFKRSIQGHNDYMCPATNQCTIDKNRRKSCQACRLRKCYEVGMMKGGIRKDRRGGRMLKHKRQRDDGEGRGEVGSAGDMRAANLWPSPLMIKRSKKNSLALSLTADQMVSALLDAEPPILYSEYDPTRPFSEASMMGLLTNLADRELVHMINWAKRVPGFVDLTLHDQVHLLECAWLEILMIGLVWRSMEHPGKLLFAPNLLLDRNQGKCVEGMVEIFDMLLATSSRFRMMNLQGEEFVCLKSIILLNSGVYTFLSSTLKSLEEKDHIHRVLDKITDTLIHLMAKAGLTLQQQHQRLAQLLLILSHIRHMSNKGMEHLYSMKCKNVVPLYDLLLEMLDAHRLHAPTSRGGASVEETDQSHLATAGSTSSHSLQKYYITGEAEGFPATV
Put plainly: potentiators of ERα–SRC-1 coactivator binding, dose response, biochemical, TR-FRET, ERα LBD (AID 737). Background: TR-FRET usually uses a lanthanide donor and a delayed reading to cut background.

The target of assay [10] is T3, Polyadenylate-binding protein 1 (Homo sapiens, UniProt P11940). The assay can be described thus: PABP1 MLLE–PAM2 interaction inhibitors, dose response, miRNA deadenylation inhibitor project, biochemical, fluorescence polarization, Cy5-PAM2 peptide, secondary (AID 602260). The assay is classed as functional. The note with it: read-out: IC50_Mean. Background: Polarisation of emitted light reports the rotation of a fluorescent probe.
T3 sequence (P11940 whole entry): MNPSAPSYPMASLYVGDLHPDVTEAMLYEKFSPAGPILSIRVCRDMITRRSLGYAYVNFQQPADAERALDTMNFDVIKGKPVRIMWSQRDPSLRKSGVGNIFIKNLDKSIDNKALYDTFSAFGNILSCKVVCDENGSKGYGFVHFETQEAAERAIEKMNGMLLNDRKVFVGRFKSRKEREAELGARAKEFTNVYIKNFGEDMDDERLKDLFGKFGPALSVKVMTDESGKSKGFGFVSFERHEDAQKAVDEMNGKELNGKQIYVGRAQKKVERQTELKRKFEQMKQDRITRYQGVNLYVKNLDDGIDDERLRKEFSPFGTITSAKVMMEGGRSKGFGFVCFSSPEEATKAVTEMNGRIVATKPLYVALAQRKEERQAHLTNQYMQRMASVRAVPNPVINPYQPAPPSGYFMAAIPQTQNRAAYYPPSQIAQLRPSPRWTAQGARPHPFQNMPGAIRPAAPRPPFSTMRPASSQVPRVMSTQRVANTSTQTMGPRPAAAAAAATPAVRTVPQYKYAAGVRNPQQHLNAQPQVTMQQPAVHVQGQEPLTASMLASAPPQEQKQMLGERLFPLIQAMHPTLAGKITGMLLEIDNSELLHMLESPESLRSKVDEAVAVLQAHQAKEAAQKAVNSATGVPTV

The target in assay [11] is T3, Polyadenylate-binding protein 1. The assay can be described thus: PABP1 MLLE–PAM2 binding inhibitor potency, dose response, biochemical, fluorescence polarization, FITC-PAM2 peptide (AID 602259). The assay is classed as functional. The note with it: read-out: IC50_Mean.
Assay [12] concerns the target Voltage-gated inwardly rectifying potassium channel KCNH2 (Homo sapiens, UniProt Q12809). The assay can be described thus: hERG protection from proarrhythmic block, potency, dose response, cell-based, thallium flux (AID 2121). The assay is classed as ADME. Background: Block of hERG is tested as a sign of cardiac risk.
In assay [13] the target is Sphingosine 1-phosphate receptor 2 (Homo sapiens, UniProt O95136). Put plainly: Dose Response Cell Based Assay for Agonists of the S1P2 Receptor. [Related pubchem assays: 729, 736, 843 ]. The assay is classed as functional.
Sphingosine 1-phosphate receptor 2, sequence (O95136 whole entry): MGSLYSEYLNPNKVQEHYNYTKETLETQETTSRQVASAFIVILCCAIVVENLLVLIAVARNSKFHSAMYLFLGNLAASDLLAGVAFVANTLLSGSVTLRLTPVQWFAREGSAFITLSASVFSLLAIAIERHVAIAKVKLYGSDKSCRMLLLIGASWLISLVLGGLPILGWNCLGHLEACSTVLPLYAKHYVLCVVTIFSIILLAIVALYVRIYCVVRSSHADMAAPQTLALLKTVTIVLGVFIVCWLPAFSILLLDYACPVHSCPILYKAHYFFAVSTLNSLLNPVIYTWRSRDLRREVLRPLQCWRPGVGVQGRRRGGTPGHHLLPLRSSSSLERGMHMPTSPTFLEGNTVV
The target in assay [14] is Photoreceptor-specific nuclear receptor (Homo sapiens, UniProt Q9Y5X4). Put plainly: NR2E3 inverse agonists, dose response, biochemical, TR-FRET (AID 463256). The assay is classed as functional.
Photoreceptor-specific nuclear receptor, sequence (Q9Y5X4 whole entry): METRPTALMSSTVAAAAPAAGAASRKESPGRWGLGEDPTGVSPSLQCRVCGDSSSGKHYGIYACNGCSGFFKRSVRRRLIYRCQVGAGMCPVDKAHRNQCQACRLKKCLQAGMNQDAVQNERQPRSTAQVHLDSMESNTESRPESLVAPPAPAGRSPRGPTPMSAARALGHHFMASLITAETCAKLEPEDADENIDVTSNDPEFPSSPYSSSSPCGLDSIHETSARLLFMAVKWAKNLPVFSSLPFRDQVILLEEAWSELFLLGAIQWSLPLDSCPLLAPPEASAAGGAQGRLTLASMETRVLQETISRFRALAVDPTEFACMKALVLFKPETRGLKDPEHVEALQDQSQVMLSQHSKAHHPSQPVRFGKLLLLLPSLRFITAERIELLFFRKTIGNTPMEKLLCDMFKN
Assay [15] concerns the target Peroxisome proliferator-activated receptor gamma/Nuclear receptor corepressor 2 (Homo sapiens, UniProt P37231+Q9Y618). The assay can be described thus: Counterscreen for NR2E3 inverse agonists: TR-FRET-based biochemical high throughput dose response assay to identify inverse agonists of the interaction between peroxisome proliferator-activated receptor gamma (PPARg) and nuclear receptor co-repressor 2 (NCOR2). The assay is classed as functional.

Assay [16] has as its target T4, Endoribonuclease toxin MazF (Escherichia coli K-12, UniProt P0AE70).
T4 sequence (P0AE70 whole entry): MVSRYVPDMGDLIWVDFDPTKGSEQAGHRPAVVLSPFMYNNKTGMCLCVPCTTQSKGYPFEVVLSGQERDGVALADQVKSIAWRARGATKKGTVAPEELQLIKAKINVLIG
The assay can be described thus: SAR analysis of small molecule activators of the MazEF TA System via a fluorescence-based single-stranded RNase assay counterscreen. [Related pubchem assays (depositor defined):AID504720, AID504743]. The assay is classed as functional.

In assay [17] the target is T4, Endoribonuclease toxin MazF. The assay can be described thus: MazF toxin RNase activators, dose response, biochemical, fluorescence, single-stranded RNA substrate, uHTS hits (AID 588481). The assay is classed as functional.
Assay [18] addresses Cytochrome P450 2C9 (Homo sapiens, UniProt P11712).
The target in assay [19] is T4, Endoribonuclease toxin MazF. Put plainly: fluorescent RNA oligo signal without MazF, dose response, counter-screen for MazEF activator project, biochemical, fluorescence, single-stranded RNase substrate (AID 588502). The assay is classed as functional.
In assay [20] the test system is MEF. The assay can be described thus: SAR analysis of small molecule cytotoxicity of MazEF TA System activators in embryonic fibroblast (MEF) cells. [Related pubchem assays (depositor defined):AID504720, AID504743]. The assay is classed as functional. Particulars: Mus musculus.
Assay [21] deals with T4, Endoribonuclease toxin MazF. Put plainly: MazF endoribonuclease activators, SAR follow-up, biochemical, fluorescence, single-stranded RNA substrate (AID 588603). The assay is classed as functional.
In assay [22] the target is Cytochrome P450 3A4 (Homo sapiens, UniProt P08684).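 Also: CYP3A4 tested as one member of a cytochrome P450 panel screen.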
Cytochrome P450 3A4, sequence (P08684 whole entry): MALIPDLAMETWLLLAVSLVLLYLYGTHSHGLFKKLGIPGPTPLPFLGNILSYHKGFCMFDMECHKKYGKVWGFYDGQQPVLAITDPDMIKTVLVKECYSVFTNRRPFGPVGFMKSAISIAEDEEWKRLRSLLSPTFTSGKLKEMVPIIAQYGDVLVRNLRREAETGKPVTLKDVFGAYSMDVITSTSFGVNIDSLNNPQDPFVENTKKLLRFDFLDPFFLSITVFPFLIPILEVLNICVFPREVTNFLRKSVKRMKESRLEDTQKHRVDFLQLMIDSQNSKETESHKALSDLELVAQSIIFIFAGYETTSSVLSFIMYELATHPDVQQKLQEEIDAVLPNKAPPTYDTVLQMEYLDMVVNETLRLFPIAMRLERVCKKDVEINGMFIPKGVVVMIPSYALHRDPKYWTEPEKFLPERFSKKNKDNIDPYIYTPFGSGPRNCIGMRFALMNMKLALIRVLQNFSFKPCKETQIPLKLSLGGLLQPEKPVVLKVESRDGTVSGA
In assay [23] the target is T5, Low molecular weight phosphotyrosine protein phosphatase (Homo sapiens, UniProt P24666).
T5 sequence (P24666 whole entry): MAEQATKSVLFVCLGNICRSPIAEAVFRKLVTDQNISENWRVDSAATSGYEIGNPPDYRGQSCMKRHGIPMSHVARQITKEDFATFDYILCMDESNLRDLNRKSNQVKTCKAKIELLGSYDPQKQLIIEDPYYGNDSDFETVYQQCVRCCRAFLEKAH
Put plainly: LMPTP phosphatase inhibitors, dose response, biochemical, OMFP substrate, fluorescence intensity, set 2 (AID 743307). The assay is classed as functional.

Assay [24] deals with T5, Low molecular weight phosphotyrosine protein phosphatase. The assay can be described thus: LMPTP phosphatase inhibitors, colorimetric pNPP readout, dose response, orthogonal assay, biochemical, absorbance, pNPP substrate, LMPTP-A isoform, set 2 (AID 743308). The assay is classed as functional.

Voltage-gated inwardly rectifying potassium channel KCNH2, sequence (Q12809 whole entry): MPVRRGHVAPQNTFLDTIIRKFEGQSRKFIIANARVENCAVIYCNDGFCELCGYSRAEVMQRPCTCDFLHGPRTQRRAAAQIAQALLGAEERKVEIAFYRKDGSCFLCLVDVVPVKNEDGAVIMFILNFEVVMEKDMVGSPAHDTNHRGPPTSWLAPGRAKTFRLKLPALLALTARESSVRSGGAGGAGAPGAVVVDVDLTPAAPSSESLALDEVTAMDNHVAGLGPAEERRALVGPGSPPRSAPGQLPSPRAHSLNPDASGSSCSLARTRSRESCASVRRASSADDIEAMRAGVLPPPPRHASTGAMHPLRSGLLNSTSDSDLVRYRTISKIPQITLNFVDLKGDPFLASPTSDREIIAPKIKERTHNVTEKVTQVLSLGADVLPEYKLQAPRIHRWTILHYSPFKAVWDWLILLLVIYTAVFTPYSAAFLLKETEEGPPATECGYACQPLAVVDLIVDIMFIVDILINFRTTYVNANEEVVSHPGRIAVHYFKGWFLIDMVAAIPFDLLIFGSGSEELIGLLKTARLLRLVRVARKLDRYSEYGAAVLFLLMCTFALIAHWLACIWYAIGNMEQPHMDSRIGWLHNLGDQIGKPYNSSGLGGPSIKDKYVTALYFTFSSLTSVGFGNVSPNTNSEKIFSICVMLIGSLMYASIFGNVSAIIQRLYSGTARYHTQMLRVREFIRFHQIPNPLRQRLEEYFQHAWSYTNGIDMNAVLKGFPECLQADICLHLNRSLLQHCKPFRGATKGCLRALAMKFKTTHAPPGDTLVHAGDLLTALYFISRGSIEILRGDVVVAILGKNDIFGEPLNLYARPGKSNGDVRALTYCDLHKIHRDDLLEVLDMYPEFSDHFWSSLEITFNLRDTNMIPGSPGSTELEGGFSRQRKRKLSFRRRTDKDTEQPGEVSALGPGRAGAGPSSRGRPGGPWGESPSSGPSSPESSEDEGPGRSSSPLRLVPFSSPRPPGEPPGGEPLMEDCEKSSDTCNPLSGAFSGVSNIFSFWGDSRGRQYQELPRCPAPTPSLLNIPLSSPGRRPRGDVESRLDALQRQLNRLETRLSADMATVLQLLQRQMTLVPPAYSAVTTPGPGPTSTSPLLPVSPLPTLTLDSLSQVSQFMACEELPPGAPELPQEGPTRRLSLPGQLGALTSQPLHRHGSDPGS
Cytochrome P450 2C9, sequence (P11712 whole entry): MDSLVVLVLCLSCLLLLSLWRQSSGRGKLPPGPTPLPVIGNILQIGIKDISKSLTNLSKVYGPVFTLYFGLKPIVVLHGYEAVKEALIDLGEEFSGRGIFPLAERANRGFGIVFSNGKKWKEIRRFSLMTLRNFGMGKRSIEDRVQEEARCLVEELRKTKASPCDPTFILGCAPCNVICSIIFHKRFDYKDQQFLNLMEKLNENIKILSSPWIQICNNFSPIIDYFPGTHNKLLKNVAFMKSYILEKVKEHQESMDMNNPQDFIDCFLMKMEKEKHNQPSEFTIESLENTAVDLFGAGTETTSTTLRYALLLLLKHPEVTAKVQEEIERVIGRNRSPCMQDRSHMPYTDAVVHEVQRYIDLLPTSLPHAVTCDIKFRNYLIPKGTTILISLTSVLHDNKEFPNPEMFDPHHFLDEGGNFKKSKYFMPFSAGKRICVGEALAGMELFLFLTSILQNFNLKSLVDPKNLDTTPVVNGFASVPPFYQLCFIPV
Sphingosine 1-phosphate receptor 4, sequence (O95977 whole entry): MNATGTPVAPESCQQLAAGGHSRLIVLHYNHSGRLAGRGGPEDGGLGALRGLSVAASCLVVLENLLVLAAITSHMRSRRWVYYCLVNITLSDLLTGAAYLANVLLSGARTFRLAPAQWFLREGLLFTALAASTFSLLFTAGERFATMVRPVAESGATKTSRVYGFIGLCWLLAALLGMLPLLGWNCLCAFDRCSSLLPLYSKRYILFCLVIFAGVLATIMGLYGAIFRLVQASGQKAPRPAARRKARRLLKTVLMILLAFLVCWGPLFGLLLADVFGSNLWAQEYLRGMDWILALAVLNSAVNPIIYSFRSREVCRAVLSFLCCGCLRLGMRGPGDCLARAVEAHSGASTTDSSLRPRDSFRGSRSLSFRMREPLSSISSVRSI

A word on the AC50: it is the midpoint of the concentration-response curve, whichever way the signal moves. Take `c1ccc2c(CN3CCCCCC3)c[nH]c2c1`: in assay [1], the AC50 is 4.09 µM (active). For the same compound, in [2], the IC50 was 0.702 µM (active).
`COc1ccc(NCN2C(=O)CCC2=O)cc1`: in [3], the IC50 was > 100 µM (active).
As a reminder, the CC50 is the concentration giving 50% cytotoxicity. As for `O=C(/C=C/c1ccccc1)CC(O)(c1ccccc1)C(F)(F)C(F)F` (centres undefined), the IC50 in assay [4] is 30.6 µM (not active); in [6], 1.7 µM (active); in [7] it was 2.27 µM (active). Besides, in assay [5], the AC50 was 12.4 µM (active). Moreover, the CC50 in assay [8] was 17.5 µM (active).
One may read the EC50 as the concentration that produces a half-maximal response. For `CCc1nnc2sc(-c3ccc(NC(=O)c4ccc5c(c4)OCCO5)cc3)nn12`, in assay [9], the EC50 is recorded as 32.2 µM (not active).
On to `Cc1ccc(S(=O)(=O)N=C(S)NC2CCCCC2)cc1`, for which the IC50 in [10] and in assay [11] was > 66 µM (inactive) in each case. Besides, the EC50 in assay [12] was 9.12 µM (active).
Turning to `Cc1ccc(Cn2cccc(-c3nc4ccccc4s3)c2=O)cc1`, the EC50 in assay [13] is 4.14 µM (active).
Take `O=C(CSc1nc(-c2ccccc2)nc2ccccc12)Nc1nccs1`: the IC50 was 5.93 µM (active) in assay [14] and > 39.8 µM (not active) in [15]. For the same compound, the EC50 was > 99 µM (inactive) in assay [16], 20.7 µM (inactive) in assay [17], 45 µM (inactive) in [19] and 29.1 µM (inactive) in assay [21]. Further, the figures for the AC50 in assay [18] and in [22] were 0.631 µM (inconclusive) and 1 µM (inconclusive), respectively. The CC50 in assay [20] was 29.7 µM (active).
With `c1ccc(-c2nc(NC3CC3)c3ccccc3n2)cc1`, the IC50 was 48.1 µM (inactive) in assay [23] and > 80 µM (inactive) in assay [24].
